From patent US9725460B2, “Oridonin analogs, compositions, and methods related thereto” (THE BOARD OF REGENTS OF THE UNIVERSITY OF TEXAS SYSTEM, priority 2013, dated 2017)
Values after ≈ are worked out from the molar mass of the structure shown. Where two headings read alike, the source gives them in different places.

Tests used:
[1] = test system: MCF-7; assay: MTT cancer cell proliferation assay, MCF-7; format: cell-based, human; details: Homo sapiens
Protocol: (§1) In Vitro Determination of Effects of Synthesized Diterpenoids on Cancer Cell Proliferation. Breast cancer cell lines MCF-7, MDA-MB-231, […] and MCF/ADR were seeded in 96-well plates at a density of 1×10^4 cells/well and treated with DMSO and 0.01, 0.1, 1, 5, 10, and 100 μM of individual compound for 48 h, and then 20 μL of 3-(4,5-dimethylthiazol-2-yl)-2,5-diphenyltetrazolium bromide (MTT) (5 mg/mL in PBS) was added to each well and further incubated for another 4 h. Then MTT solution was removed, and 150 μL of DMSO was added to each well. Absorbance of all wells was determined by measuring OD at 550 nm after a 10 min incubation on a 96-well GlowMaxate absorbance reader (Promega, Madison, Wis.). Each individual compound was tested in quadruplicate wells for each concentration.
(§2) The growth inhibitory effects of the newly generated pyran-fused diterpenoids were evaluated in four breast cancer cell lines MCF-7 (ER-positive), MDAMB-231 (ER-negative and triple-negative), MDA-MB-468 (ER-negative and triple-negative) as well as MCF-7/ADR (adriamycin-resistant) using MTT assays as described in the Experimental Section.

[2] = test system: MDA-MB-231; assay: MTT cancer cell proliferation assay, MDA-MB-231; format: cell-based, human; details: Homo sapiens
Protocol: as §1, §2

[3] = test system: AsPC1; assay: Cancer cell proliferation assay, AsPC1; format: cell-based; details: Homo sapiens
Protocol: (§3) In Vitro Determination of Effects of Synthesized Diterpenoids on Cancer Cell Proliferation. […] Then MTT solution was removed, and 150 μL of DMSO was added to each well. Absorbance of all wells was determined by measuring OD at 550 nm after a 10 min incubation on a 96-well GlowMaxate absorbance reader (Promega, Madison, Wis.). Each individual compound was tested in quadruplicate wells for each concentration.

[4] = test system: Panc-1; assay: Cancer cell proliferation assay, Panc-1; format: cell-based; details: Homo sapiens
Protocol: as §3

[5] = test system: DU145; assay: Cancer cell proliferation assay, DU145; format: cell-based; details: Homo sapiens
[6] = Aqueous solubility; format: physicochemical; details: for solubility: water; for Aqueous solubility compared with oridonin: FIG. 2
[7] = test system: breast, pancreatic, and prostate cancer cell lines; assay: Anti-proliferation effects against cancer cell lines; format: cell-based, human; details: summary of Tables 1 and 2
Protocol: as §1

[8] = test system: MDA-MB-468; assay: MTT cancer cell proliferation assay, MDA-MB-468; format: cell-based, human; details: Homo sapiens, MDA-MB-468, 48 h, Table 3; pyran-fused diterpenoids; MTT 48 h; mean ± SE of three experiments
Protocol: as §1
as §2, with “Section. The capability of these new molecules to inhibit the growth of cancer cells was summarized in Table 3 and compared with that of adriamycin and 1 spontaneously.” for “Section.”

[9] = test system: MCF-7/ADR; assay: MTT growth inhibition, drug-resistant MCF-7/ADR; format: cell-based, human; details: Homo sapiens, NCI/ADR-RES, 48 h, Table 3; adriamycin-resistant; MTT 48 h; mean ± SE of three experiments
Protocol: as §1
as §2, with “Section. The capability of these new molecules to inhibit the growth of cancer cells was summarized in Table 3 and compared with that of adriamycin and 1 spontaneously.” for “Section.”

[10] = MCF7, Table 1a, breast cancer, read-out: IC50 (μM) MCF-7
[11] = MCF7, Table 2b, mean of at least three experiments, read-out: Effect on proliferation MCF-7 (ER positive) (IC50)
[12] = MDA-MB-231, Table 1a, breast cancer, read-out: IC50 (μM) MDA-MB-231
[13] = MDA-MB-231, Table 2b, mean of at least three experiments, read-out: Effect on proliferation MDA-MB-231 (ER negative) (IC50)
[14] = ASPC1, Table 1a, pancreatic cancer, read-out: IC50 (μM) AsPC1
[15] = ASPC1, Table 2b, mean of at least three experiments, read-out: Effect on proliferation AsPC1 (IC50)
[16] = PANC-1, Table 1a, pancreatic cancer, read-out: IC50 (μM) Panc-1
[17] = PANC-1, Table 2b, mean of at least three experiments, read-out: Effect on proliferation Panc-1 (IC50)
[18] = DU-145, Table 1a, prostate cancer, read-out: IC50 (μM) DU145
[19] = DU-145, Table 2b, mean of at least three experiments, read-out: Effect on proliferation DU145 (IC50)
[20] = in the form of HCl salt, read-out: Aqueous solubility (saturated concentration)

Structure (SMILES)	IC50 [1, 10] [µM]	IC50 [1, 11] [µM]	IC50 [2, 12] [µM]	IC50 [2, 13] [µM]	IC50 [3, 14] [µM]	IC50 [3, 15] [µM]	IC50 [4, 16] [µM]	IC50 [4, 17] [µM]	IC50 [5, 18] [µM]	IC50 [5, 19] [µM]	solubility [6, 20] [mg/mL]	IC50 values, anti-proliferation effects against cancer cell lines [7]	also measured
C=C1C(=O)[C@@]23C(CCC1[C@H]2O)[C@@]12COC3(O)[C@@H](O)C1C(C)(C)Cc1sc(NCCN3CCCCC3)nc12 (stereo in doubt) [CYD-6-20, (6S,7S,7aR,10R,12bR,15R)-6,7,15-trihydroxy-5,5-dimethyl-9-methylene-2-((2-(piperidin-1-yl)ethyl)amino)-5,5a,6,7,10,11,12,12a-octahydro-4H-7,12b(epoxymethano)-7a,10-methanocyclohepta[7,8]naphtho[1,2-d]thiazol-8(9H)-one]	1	1	1.83	1.8	1.1	1.1	1.54	1.5	1.16	1.2	> 100		
C=C1C(=O)[C@]23[C@H](O)[C@H]1CC[C@H]2[C@@]12CO[C@]3(O)[C@@H](O)[C@@H]1C(C)(C)Cc1sc(NC)nc12 [CYD-5-54, (5aR,6S,7S,7aR,10S,12aS,12bR,15R)-6,7,15-trihydroxy-5,5-dimethyl-2-(methylamino)-9-methylene-5,5a,6,7,10,11,12,12a-octahydro-4H-7,12b-(epoxymethano)-7a,10-methanocyclohepta[7,8]naphtho[1,2-d]thiazol-8(9H)-one]	1.28	1.3	2.06	2.1	1.84	1.8	2.33	2.3	4.05	4.1	81.2	low micromolar to nanomolar	Aqueous solubility compared with oridonin [6]: significantly improved solubility; Improvement of aqueous solubility in comparison with oridonin ([6]; HCl salt vs oridonin (1.29 mg/mL)): ~62 fold
C=C1C(=O)[C@@]23C(CC[C@H]1[C@H]2O)[C@@]12CO[C@]3(O)[C@@H](O)C1C(C)(C)Cc1sc(NC3CCCCC3)nc12 (stereo partly drawn) [CYD-6-17-2, (6S,7S,7aR,10R,12bR,15R)-2-(cyclohexylamino)-6,7,15-trihydroxy-5,5-dimethyl-9-methylene-5,5a,6,7,10,11,12,12a-octahydro-4H-7,12b-(epoxymethano)-7a,10-methanocyclohepta[7,8]naphtho[1,2-d]thiazol-8(9H)-one]	0.94	0.9	0.83	0.8	1.65	1.7	3.74	3.7	1.82	1.8		low micromolar to nanomolar	
C=C1C(=O)[C@@]23C(CC[C@H]1[C@H]2O)[C@@]12CO[C@]3(O)[C@@H](O)C1C(C)(C)Cc1sc(C)nc12 (stereo partly drawn) [CYD-6-19, (6S,7S,7aR,10R,12bR,15R)-6,7,15-trihydroxy-2,5,5-trimethyl-9-methylene-5,5a,6,7,10,11,12,12a-octahydro-4H-7,12b-(epoxymethano)-7a,10-methanocyclohepta[7,8]naphtho[1,2-d]thiazol-8(9H)-one]													IC50 ([1]; MCF7, read-out: Effect on proliferation MCF-7 (ER positive) (IC50)): 2.6 µM; IC50 ([1]; MCF7, read-out: IC50 (μM) MCF-7): 2.63 µM; IC50 ([2]; MDA-MB-231, read-out: Effect on proliferation MDA-MB-231 (ER negative) (IC50)): 6.9 µM; IC50 ([2]; MDA-MB-231, read-out: IC50 (μM) MDA-MB-231): 6.88 µM; IC50 ([3]; ASPC1, read-out: Effect on proliferation AsPC1 (IC50)): 6.5 µM; IC50 ([3]; ASPC1, read-out: IC50 (μM) AsPC1): 6.46 µM; IC50 ([4]; PANC-1, read-out: Effect on proliferation Panc-1 (IC50)): 7.8 µM; IC50 ([4]; PANC-1, read-out: IC50 (μM) Panc-1): 7.83 µM; IC50 ([5]; DU-145, read-out: Effect on proliferation DU145 (IC50)): 7.6 µM; IC50 ([5]; DU-145, read-out: IC50 (μM) DU145): 7.63 µM; Aqueous solubility compared with oridonin [6]: significantly improved solubility; solubility ([6]; compound as such, read-out: Aqueous solubility): 4.47 mg/mL (≈ 10.7 mM)
C=C1C(=O)[C@]23[C@H](O)[C@H]1CC[C@H]2[C@@]12CO[C@]3(O)[C@@H](O)[C@@H]1C(C)(C)Cc1sc(NCCCC)nc12 [CYD-6-28, (5aR,6S ,7S,7aR,10S,12aS,12bR,15R)-2-(butylamino)-6,7,15-trihydroxy-5,5-dimethyl-9-methylene-5,5a,6,7,10,11,12,12a-octahydro-4H-7,12b-(epoxymethano)-7a,10-methanocyclohepta[7,8]naphtho[1,2-d]thiazol-8(9H)-one]	0.59	0.6	1.06	1.1	1.39	1.4	4.01	4	4.22	4.2		low micromolar to nanomolar	
C=C1C(=O)[C@]23[C@H](O)[C@H]1CC[C@H]2[C@@]12CO[C@]3(O)[C@@H](O)[C@@H]1C(C)(C)Cc1sc(NC(=N)N)nc12 [CYD-6-29, 1-((5aR,6S,7S,7aR,10S,12aS,12bR,15R)-6,7,15-trihydroxy-5,5-dimethyl-9-methylene-8-oxo-5,5a,6,7,8,9,10,11,12,12a-decahydro-4H-7,12b-(epoxymethano)-7a,10-methanocyclohepta[7,8]naphtho[1,2-d]thiazol-2-yl)guanidine]	3.43	3.4	> 10	> 10	> 10	> 10	15.4	> 10	35.9	> 10	> 100		
C=C1C(=O)[C@]23[C@H](O)[C@H]1CC[C@H]2[C@@]12CO[C@]3(O)[C@@H](O)[C@@H]1C(C)(C)Cc1sc(NC(C)C)nc12 [CYD-6-30, (5aR,6S,7S,7aR,10S,12aS,12bR,15R)-6,7,15-trihydroxy-2-(isopropylamino)-5,5-dimethyl-9-methylene-5,5a,6,7,10,11,12,12a-octahydro-4H-7,12b-(epoxymethano)-7a,10-methanocyclohepta[7,8]naphtho[1,2-d]thiazol-8(9H)-one]	0.82	0.8	0.28	0.3	1.45	1.4	3.27	3.3	5.31	5.3		low micromolar to nanomolar	
C=C1C(=O)[C@@]23[C@@H]4OC(C)(C)O[C@@]25OC[C@]2(C6=C(CC[C@H](OCCCN=[N+]=[N-])O6)CC(C)(C)[C@H]2[C@@H]5O)[C@@H]3CC[C@@H]14 [CYD-8-87]													IC50 ([1]; MCF7, 48 h, Table 3, pyran-fused diterpenoids, MTT 48 h, mean ± SE of three experiments, read-out: IC50 (μM) MCF-7): 7.79 ± 3.18 µM; IC50 ([2]; MDA-MB-231, 48 h, Table 3, pyran-fused diterpenoids, MTT 48 h, mean ± SE of three experiments, read-out: IC50 (μM) MDA-MB-231): 7.57 ± 0.44 µM; IC50 [8]: 6.63 ± 0.77 µM; IC50 [9]: 8.6 ± 0.7 µM
